Measurements as given in patent US7410974B2, “Halogenated Quinazolinyl nitrofurans as antibacterial agents” (Ulysses Pharmaceutical Products, Inc., priority 2003, dated 2008).
≈ marks a conversion by molar mass, not a printed value. Where two headings read alike, the source gives them in different places.

Experiments:
S. aureus ATCC 29213 = assay: MIC broth microdilution (NCCLS); assay type: cell-based, Staphylococcus aureus; details: Staphylococcus aureus, ATCC29213; S. aureus ATCC 29213; read-out: MIC
S. aureus MRSA COL = assay: MIC broth microdilution (NCCLS); assay type: cell-based, Staphylococcus aureus; details: Staphylococcus aureus, MRSA, S. aureus MRSA COL; read-out: MIC
Summary of the method: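 Susceptibility determined in cation-adjusted Mueller Hinton broth using serial twofold compound dilutions and a verified 10^5-10^6 CFU/ml inoculum.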

[1] = tested on: S. epidermidis ATCC 12228; assay: MIC broth microdilution (NCCLS); assay type: cell-based, Staphylococcus epidermidis; details: Staphylococcus epidermidis, ATCC12228; S. epidermidis ATCC 12228; read-out: MIC
Summary of the method: (§1)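 Susceptibility by NCCLS microdilution: checked inoculum 10^5-10^6 CFU/ml, 24 h at 35° C, and growth assessed at 650 nm and by eye. Haemophilus was tested in HTM medium and Listeria with laked horse blood, each incubated under 5% CO2.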

[2] = tested on: S. saprophyticus ATCC 15305; assay: MIC broth microdilution (NCCLS); assay type: cell-based, Staphylococcus saprophyticus; details: Staphylococcus saprophyticus, ATCC15305; S. saprophyticus ATCC 15305; read-out: MIC
Summary of the method: (§2)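 NCCLS broth microdilution; inoculum 10^5-10^6 CFU/ml; 2-fold serial dilutions; 35° C, 24 h; A650 plus visual read. Media: MHBCA (S. saprophyticus, E. faecium), MHBCA + 2% laked horse blood (Listeria), HTM (Haemophilus), the last two under 5% CO2.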

E. faecalis ATCC 29212 = assay: MIC broth microdilution (NCCLS); assay type: cell-based, Enterococcus faecalis; details: Enterococcus faecalis, ATCC29212; E. faecalis ATCC 29212; read-out: MIC
E. faecium ATCC 35667 = assay: MIC broth microdilution (NCCLS); assay type: cell-based, Enterococcus faecium; details: Enterococcus faecium, ATCC35667, E. faecium ATCC 35667; read-out: MIC
Summary of the method: as §2

E. coli ATCC 25922 = assay: MIC broth microdilution (NCCLS); assay type: cell-based, Escherichia coli
H. influenzae ATCC 49247 [3] = assay: MIC broth microdilution (NCCLS), fastidious bacteria; assay type: cell-based; details: Haemophilus influenzae, ATCC49247, HTM, 5% CO2
Summary of the method: as §1

H. influenzae ATCC 49766 [4] = assay: as above; assay type: cell-based; details: Haemophilus influenzae, ATCC49766, HTM, 5% CO2
Summary of the method: as §1

B. catarrhalis ATCC 8176 [5] = assay: as above; assay type: cell-based, Branhamella (Moraxella) catarrhalis; details: Moraxella catarrhalis, ATCC8176, HTM, 5% CO2
Summary of the method: as §1

E. coli MC4100 = assay: MIC broth microdilution (NCCLS); assay type: cell-based; details: Escherichia coli; E. coli MC4100, pathotype Reference
Protocol: (§3) Minimal Inhibitory Concentration (MIC) Determination. Bacteria (primary strain panel, TABLE 1). Susceptibility tests were performed following the recommendations from the National Committee for Clinical Standards (NCCLS). The MICs were determined by a broth microdilution technique using a final volume of 100 μl of cation-adjusted Mueller Hinton Broth (MHBCA) and a bacterial inoculum of 10^5-10^6 Colony Forming Units (CFU)/ml. The inocula were verified and precisely determined by applying 10-μl drops of 10-fold dilutions onto Triptic Soy Agar plates. The CFU were counted after an incubation of 24 h at 35° C. Any experiment showing an inoculum that was more or less than 10^5-10^6 CFU/ml was rejected. Control antibiotics and test compounds were prepared at a concentration equivalent to 2-fold the highest desired final concentration. Compounds were then diluted directly in the 96-well microtiter plates by serial 2-fold dilutions using a multichannel pipette. Microtiter plates were incubated during 24 h at 35° C. and growth was recorded by using a microtiterplate reader at 650 nm as well as by visual observation. The MIC was defined as the lowest concentration of compound yielding no visible growth. […] Fastidious bacteria. The medium used for Listeria monocytogenes, Neisseria meningitidis, and Campylobacter jejuni was MHBCA containing 2% laked horse blood. The medium used for Haemophilus influenzae and Branhamella (Moraxella) catarrhalis was HTM as recommended by the NCCLS. Cultures of these fastidious bacteria were incubated at 35° C. in a 5% CO2 atmosphere. […] The medium used for Bacteroides fragilis was Wilkins Chalgren broth and growth was allowed under an anaerobic atmosphere at 35° C. for 48 hours.

[6] = tested on: E. coli ATCC 35150 (O157:H7); assay: MIC broth microdilution, E. coli strains; assay type: cell-based; details: Escherichia coli, ATCC35150
Protocol: as §3
(§4) Finally, compounds were also tested against populations of various clinical strains (antibiotic resistant strain panel, TABLE 1).

E. coli Ec022c (EIEC) = assay: MIC broth microdilution, E. coli strains; assay type: cell-based; details: Escherichia coli, pathotype EIEC
Protocol: as §3, §4

E. coli Ec027c (EIEC) = assay: MIC broth microdilution, E. coli strains; assay type: cell-based; details: Escherichia coli, pathotype EIEC
Protocol: as §3, §4

E. coli Ec117c (EIEC) = assay: MIC broth microdilution, E. coli strains; assay type: cell-based; details: Escherichia coli, pathotype EIEC
Protocol: as §3, §4

E. coli Ec118c (EIEC) = assay: MIC broth microdilution, E. coli strains; assay type: cell-based; details: Escherichia coli, pathotype EIEC
Protocol: as §3, §4

E. coli Ec119c (EIEC) = assay: MIC broth microdilution, E. coli strains; assay type: cell-based; details: Escherichia coli, pathotype EIEC
Protocol: as §3, §4

[7] = tested on: E. coli d25-ALR-pen14 (O157:H7); assay: MIC broth microdilution, E. coli strains; assay type: cell-based; details: Escherichia coli
Protocol: as §3, §4

[8] = tested on: E. coli d4-OLR-pen10 (O157:H7); assay: MIC broth microdilution, E. coli strains; assay type: cell-based; details: Escherichia coli
Protocol: as §3, §4

H. influenzae ATCC 49247 [9] = assay: Minimal Bactericidal Concentration (MBC); assay type: cell-based; details: Haemophilus influenzae, ATCC49247, 99.9% killing
Summary of the method: (§5)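 Bactericidal endpoint follows the MIC read: aliquots of every well without visible growth, no fewer than five, go onto TSA. Incubation lasts exactly 24 h at 35° C. Surviving colonies are then counted.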

H. influenzae ATCC 49766 [10] = assay: Minimal Bactericidal Concentration (MBC); assay type: cell-based; details: Haemophilus influenzae, ATCC49766, 99.9% killing
Summary of the method: as §5

B. catarrhalis ATCC 8176 [11] = assay: Minimal Bactericidal Concentration (MBC); assay type: cell-based, Branhamella (Moraxella) catarrhalis; details: Moraxella catarrhalis, ATCC8176, 99.9% killing
Protocol: Minimal Bactericidal Concentration (MBC). After the microtiter plates were read for the determination of the MIC, a 10-μl sample of each clear well (at least 5 wells without visible growth) was applied onto TSA plates for viable counts determination.
Petri dishes were incubated at 35° C. for exactly 24 h and bacterial colonies were counted.

SMILES: O=[N+]([O-])c1ccc(C=Cc2nc(Nc3cccc(O)c3)c3cc(F)ccc3n2)o1 [VI, 6-fluoro-2-[2-(5-nitro-2-furyl)vinyl]-4-(m-hydroxyanilino)-quinazoline]
- melting point: 241 to 242 °C (dec.)

SMILES: CC1(C)S[C@@H]2[C@H](NC(=O)[C@H](N)c3ccccc3)C(=O)N2[C@H]1C(=O)O [Ampicillin]
- MIC (S. aureus ATCC 29213): 1 to 2 µg/mL (≈ 2.86 to 5.72 µM)
- MIC (S. aureus MRSA COL): 8 µg/mL (≈ 22.9 µM)
- MIC [1]: 64 µg/mL (≈ 183 µM)
- MIC [2]: 0.12 µg/mL (≈ 0.343 µM)
- MIC (E. faecalis ATCC 29212): 1 µg/mL (≈ 2.86 µM)
- MIC (E. faecium ATCC 35667): 1 µg/mL (≈ 2.86 µM)
- MIC (E. coli ATCC 25922; E. coli ATCC 25922 (Reference)): 4 µg/mL (≈ 11.4 µM)
- MIC (E. coli ATCC 25922; Escherichia coli, ATCC25922, E. coli ATCC 25922 (Reference), read-out: MIC): 4 to 8 µg/mL (≈ 11.4 to 22.9 µM)
- MIC (H. influenzae ATCC 49247 [3]): 2 to 4 µg/mL (≈ 5.72 to 11.4 µM)
- MIC (H. influenzae ATCC 49766 [4]): ≤ 0.12 µg/mL
- MIC (B. catarrhalis ATCC 8176 [5]): ≤ 0.03 µg/mL
- MIC (E. coli MC4100): 4 µg/mL (≈ 11.4 µM)
- MIC [6]: 2 µg/mL (≈ 5.72 µM)
- MIC (E. coli Ec022c (EIEC)): > 64 µg/mL
- MIC (E. coli Ec027c (EIEC)): > 64 µg/mL
- MIC (E. coli Ec117c (EIEC)): 16 µg/mL (≈ 45.8 µM)
- MIC (E. coli Ec118c (EIEC)): > 64 µg/mL
- MIC (E. coli Ec119c (EIEC)): > 64 µg/mL
- MIC [7]: 2 to 4 µg/mL (≈ 5.72 to 11.4 µM)
- MIC [8]: 2 to 4 µg/mL (≈ 5.72 to 11.4 µM)
- MBC (H. influenzae ATCC 49247 [9]): 4 µg/mL (≈ 11.4 µM)
- MBC (H. influenzae ATCC 49766 [10]): ≤ 0.12 µg/mL
- MBC (B. catarrhalis ATCC 8176 [11]): ≤ 0.03 µg/mL
